# Values of other authors in patent publication US20080104001A1, “ALGORITHM FOR ESTIMATION OF BINDING EQULIBRIA IN INCLUSION COMPLEXATION, HOST COMPOUNDS IDENTIFIED THEREBY AND COMPOSITIONS OF HOST COMPOUND AND PHARMACEUTICAL” (priority 2006, published 2008).
# Conditions: cross-validation set; literature values
row,Compound,Log K(1:1) Measured
1,O=C(O)C12CCC(CC1)C2 [1-bicyclo[2.2.1]heptanecarboxylic acid],4.18
2,CN1C(=O)CC(=O)N(c2ccccc2)c2cc(Cl)ccc21 [clobazam],1.73
3,NC(=O)N1c2ccccc2C=Cc2ccccc21 [Carbamazepine],2.83
4,COc1ccc2c(c1)c(CC(=O)O)c(C)n2C(=O)c1ccc(Cl)cc1 [indomethacin],2.72
5,"Ic1ccc(I)cc1 [1,4 diiodobenzene]",3.18
6,Nc1ccc(-c2ccc(N)cc2)cc1 [benzidine],3.36
7,OC1CCC1 [cyclobutanol],1.18
8,Nc1ccc(C(=O)O)cc1 [4-aminobenzoic acid],2.70
9,O=C1CN=C(c2ccccc2Cl)c2cc([N+](=O)[O-])ccc2N1 [clonazepam],1.9
10,CN[C@@H](C)[C@H](O)c1ccccc1 [Ephedrine],2.25
11,O=C(O)c1ccc(O)cc1 [p-hydroxybenzoic-acid],3.03
12,O=C(O)c1cccc(O)c1 [3-hydroxybenzoic acid],2.46

# Same assay, conditions: training set; published stability constants (Connors, 1995)
row,Compound,Log K(1:1)
1,ClC(Cl)(Cl)Cl [tetrachloromethane],2.18
2,CC(=O)OCC(=O)[C@@]1(O)CC[C@H]2[C@@H]3CCC4=CC(=O)C=C[C@]4(C)[C@H]3[C@@H](O)C[C@@]21C [prednisolone-21-acetate],3.76
3,"Cc1cccc(C)c1C [1,2,3-trimethylbenzene]",2.26
4,CC(C)CCO [3-methyl-1-butanol],2.21
5,c1ccc2nc3ccccc3cc2c1 [Acridine],2.46
6,O=C1CCCCC1 [cyclohexanone],2.71
7,CCCCC(=O)O[C@]1(C(=O)CO)[C@@H](C)C[C@H]2[C@@H]3CCC4=CC(=O)C=C[C@]4(C)[C@@]3(F)[C@@H](O)C[C@@]21C [betamethasone-17-valerate],3.32
8,CCC1(CC)C(=O)NC(=O)N(C)C1=O [metharbital],2.36
9,OCc1ccccc1 [benzyl alcohol],1.7
10,C[C@]12CCC(=O)C=C1CC[C@@H]1[C@@H]2C(=O)C[C@@]2(C)[C@H]1CC[C@]2(O)C(=O)CO [Cortisone],3.39
11,Cc1ccc2ccccc2c1 [2-methylnaphthalene],2.85
12,"Cc1ccc(C)c2ccccc12 [1,4-dimethylnaphthalene]",2.54
13,c1ccc2c(c1)cc1ccc3cccc4ccc2c1c34 [benzo[a]pyrene],3.34
14,Clc1ccccc1 [chlorobenzene],2.2
15,c1cc2ccc3cccc4ccc(c1)c2c34 [pyrene],2.45
16,C1CCCC1 [cyclopentane],1.95
17,C1=Cc2cccc3cccc1c23 [Acenaphthylene],2.41
18,O=C(O)C12CC3CC(CC(C3)C1)C2 [1-adamantanecarboxylic-acid],5.81
19,"Oc1cccc(O)c1 [1,3-benzenediol]",2.04
20,CC(C(=O)O)c1ccc(-c2ccccc2)c(F)c1 (stereo not shown) [flurbiprofen],3.71
21,C=CCC1(C(C)CCC)C(=O)NC(=O)NC1=O (stereo not shown) [Secobarbital],3.26
22,"Cc1cccc2c(C)cccc12 [1,5-dimethylnaphthalene]",2.3
23,CCCCCCCCO [1-octanol],3.29
24,c1ccccc1 [benzene],2.17
25,CCCCCCCC1(CC)C(=O)NC(=O)NC1=O [5-ethyl-5-heptylbarbituric acid],3.61

row,Compound,Log K(1:1)
1,"Fc1ccc(F)cc1 [1,4-difluorobenzene]",1.6
2,"Cc1ccc(C)c(C)c1 [1,2,4-trimethylbenzene]",2.94
3,Oc1cccc2ccccc12 [1-naphthol],2.09
4,"Oc1ccc(O)cc1 [1,4-benzenediol]",2.09
5,CCCCCCC(C)O (stereo not shown) [2-octanol],3.13
6,CCCC1(CC)C(=O)NC(=O)NC1=O [5-ethyl-5-propylbarbituric acid],2.19
7,CCCC(C)O (stereo not shown) [2-pentanol],1.65
8,"Clc1ccc(Cl)cc1 [1,4-dichlorobenzene]",2.51
9,C1CCCCC1 [cyclohexane],2.19
10,CC(=O)OCC(=O)[C@@]1(O)CC[C@H]2[C@@H]3CCC4=CC(=O)CC[C@]4(C)[C@H]3C(=O)C[C@@]21C [cortisone acetate],3.62
11,c1ccc(Nc2ccccc2)cc1 [diphenylamine],3.03
12,Fc1ccccc1 [fluorobenzene],1.85
13,CCC1(C2=CCCCC2)C(=O)NC(=O)NC1=O [Cyclobarbital],3.11
14,"CCC1(CC)C(=O)NC(=S)NC1=O [5,5-diethyl-2-thiobarbituric acid]",2.47
15,C1COCCN1 [morpholine],1.23
16,C[C@]12C=CC(=O)C=C1CC[C@@H]1[C@@H]2[C@@H](O)C[C@@]2(C)[C@H]1CC[C@]2(O)C(=O)CO [Prednisolone],3.45
17,OC1CCCCC1 [Cyclohexanol],2.75
18,C[C@]12CC[C@H]3[C@@H](CCC4=CC(=O)CC[C@@]43C)[C@@H]1CC[C@@H]2O [Testosterone],3.8
19,Nc1ccccc1 [Aniline],1.89
20,Cc1cccc(O)c1 [3-methylphenol],2.34
21,Cc1cccc2ccccc12 [1-methylnaphthalene],2.64
22,Ic1ccccc1 [iodobenzene],2.9
23,c1ccc2c(c1)ccc1ccccc12 [phenanthrene],3.18
24,"Brc1ccc(Br)cc1 [1,4-dibromobenzene]",2.97
25,CCCCCC(=O)O [hexanoic acid],2.47

row,Compound,Log K(1:1)
1,"Oc1ccccc1O [1,2-benzenediol]",2.04
2,Oc1ccc2ccccc2c1 [2-naphthol],2.77
3,"CCN(CC)c1ccccc1 [N,N-diethylaniline]",2.96
4,CCCCCC1(CC)C(=O)NC(=O)NC1=O [5-ethyl-5-pentylbarbituric acid],3.1
5,O=C(O)c1ccccc1O [salicylic-acid],2.63
6,c1ccc2cc3ccccc3cc2c1 [anthracene],3.41
7,C[C@]12C=CC(=O)C=C1CC[C@H]1[C@@H]3C[C@@H](O)[C@](O)(C(=O)CO)[C@@]3(C)C[C@H](O)[C@@]12F [Triamcinolone],3.37
8,Brc1ccccc1 [bromobenzene],2.49
9,O=C(O)c1ccc(O)cc1 [p-hydroxybenzoic-acid],3.03
10,CCCOC(=O)c1ccc(O)cc1 [propylparaben],2.97
11,O=C(O)Cc1ccccc1Nc1c(Cl)cccc1Cl [Diclofenac],2.18
12,c1ccc2cc3cc4ccccc4cc3cc2c1 [naphthacene],3.53
13,CC(=O)[C@H]1CC[C@H]2[C@@H]3CCC4=CC(=O)CC[C@]4(C)[C@H]3CC[C@]12C [Progesterone],4.28
14,CCCCCCC [Heptane],1.84
15,CCCCCO [1-pentanol],1.97
16,Cc1ccccc1O [2-methylphenol],2.12
17,O=C(c1ccccc1)c1ccccc1 [benzophenone],3.08
18,O=C1NC(=O)C(c2ccccc2)(c2ccccc2)N1 [Phenytoin],2.93
19,CC(C)c1ccccc1 [1-methylethylbenzene],3.08
20,C1CCCCCCC1 [Cyclooctane],3.23
21,CCCCOC(=O)c1ccc(O)cc1 [butylparaben],3.32
22,O=C1OC(c2ccc(O)cc2)(c2ccc(O)cc2)c2ccccc21 [phenolphthalein],4.56
23,COc1ccccc1 [Anisole],2.14

# Same assay, conditions: validation set; known binding constants
row,Compound,Log K(1:1)
1,CCCCCCCCCC(=O)O [decanoic acid],3.97
2,CC(=O)Nc1ccc(O)cc1 [Acetaminophen],2.03
3,CCOC(=O)c1ccc(N)cc1 [ethyl-p-aminobenzoate],2.69
4,Cc1ccc(C(=O)O)cc1 [p-toluic acid],3.23
5,CC(=O)Oc1ccccc1C(=O)O [acetylsalicylic acid],3.23
6,c1cc2c3c(cccc3c1)CC2 [Acenaphthene],2.01
7,"Oc1ccc(O)cc1 [1,4-benzenediol]",2.09
8,c1ccc2ccccc2c1 [Naphthalene],2.87
9,FF [Fluorine],3.13
10,CN[C@@H](C)[C@H](O)c1ccccc1 [Ephedrine],2.25
11,CC(=O)OCC(=O)[C@@]1(O)CC[C@H]2[C@@H]3CCC4=CC(=O)CC[C@]4(C)[C@H]3[C@@H](O)C[C@@]21C [hydrocortisone-21-acetate],3.51
12,O=C(O)C=Cc1ccccc1 [cinnamic acid],2.57
13,Cc1cccc(O)c1 [3-methylphenol],2.34
14,C[C@]12CCC(=O)C=C1CC[C@@H]1[C@@H]2[C@@H](O)C[C@@]2(C)[C@H]1CC[C@]2(O)C(=O)CO [Hydrocortisone],3.46
15,"CC(C)(C)CO [2,2-dimethylpropanol]",2.69
16,OC1CCCCCCC1 [Cyclooctanol],3.3
17,CC(=O)OCC(COC(C)=O)OC(C)=O [glyceryl triacetate],1.15

# Conditions: by itself, without cyclodextrin
row,Compound,aqueous solubility
1,CCC(C)n1ncn(-c2ccc(N3CCN(c4ccc(OCC5COC(Cn6cncn6)(c6ccc(Cl)cc6Cl)O5)cc4)CC3)cc2)c1=O (stereo not shown) [itraconazole],less than 0.1 microgram/mL
